Test results published in US9274101B2 (BIOLOG, Inc., priority 2001, dated 2016).

How the values were obtained:
E. coli MG1655 [1] = format: cell-based, Escherichia coli
ten strains of E. coli = format: cell-based, Escherichia coli
HL-60 cells = experiment: Effect of 10 mM citric acid on HL-60 energy utilization; format: cell-based, human
E. coli MG1655 [2] = format: cell-based, Escherichia coli; remark: listed apart in the source

Compound | suitability as phosphorus source (growth, purple color) (E. coli MG1655 [1]) | suitability as sulfur source (growth, purple color) (E. coli MG1655 [1]) | further results
O=P(O)(O)OCC(O)CO (racemic) [D,L-α-glycerol phosphate] | positive | – | carbon source utilization (ten strains of E. coli): + and −
CCCCCCCCCCCCS(=O)(=O)O [1-dodecane-sulfonic acid] | – | not suitable | –
NCCP(=O)(O)O [2-aminoethyl phosphonate] | weak positive | – | –
O=C(O)C(CO)OP(=O)(O)O (stereo not drawn) [2-phosphoglyceric acid] | positive | – | –
O=CC[C@@H](O)[C@H](O)[C@H](O)COP(=O)(O)O [2′-deoxyglucose 6-phosphate] | positive | – | –
O=C(O)[C@H](O)[C@@H](O)[C@H](O)[C@H](O)COP(=O)(O)O [6-phosphogluconic acid] | positive | – | –
O=C1O[C@@H]([C@H](O)CO)[C@H](O)[C@H]1O [D-galactonic acid-γ-lactone] | – | – | cell activity in the presence of citric acid, in words (HL-60 cells): capable of overcoming the antiproliferative effects of citric acid; carbon source utilization (ten strains of E. coli): − and +; carbon source utilization (text) (ten strains of E. coli): negative
O=C(CO)[C@@H](O)[C@H](O)[C@H](O)COP(=O)(O)O [Fructose-6-phosphate] | positive | – | carbon source utilization (ten strains of E. coli): +
O=P(O)(O)O[C@H]1O[C@H](CO)[C@@H](O)[C@H](O)[C@H]1O [Glucose-1-phosphate] | positive | – | carbon source utilization (ten strains of E. coli): +
O=C[C@H](O)[C@@H](O)[C@H](O)[C@H](O)COP(=O)(O)O [Glucose-6-phosphate] | positive | – | carbon source utilization (ten strains of E. coli): +
N[C@@H](CS(=O)(=O)O)C(=O)O [L-cysteic acid] | – | positive | –
N[C@@H](CS(=O)O)C(=O)O [L-cysteine sulphinic acid] | – | positive | –
N[C@@H](CS)C(=O)O [L-cysteine] | – | positive | suitability as nitrogen source (growth, purple color) (E. coli MG1655 [2]): not suitable
N[C@@H](CSCSC[C@H](N)C(=O)O)C(=O)O [L-djenkolic acid] | – | positive | –
O=C1O[C@H]([C@@H](O)CO)[C@@H](O)[C@@H]1O [L-galactonic acid γ-lactone] | – | – | cell activity in the presence of citric acid, in words (HL-60 cells): capable of overcoming the antiproliferative effects of citric acid; carbon source utilization (ten strains of E. coli): +
CS(=O)(=O)CC[C@H](N)C(=O)O [L-methionine sulfone] | – | not suitable | –
C[S+]([O-])CC[C@H](N)C(=O)O (stereo partly drawn) [L-methionine sulfoxide] | – | positive | –
COC(=O)CCC(=O)O [Mono-methyl succinate] | – | – | cell activity, % of the control without citric acid (HL-60 cells; 10 mM citric acid): up to 210%; carbon source utilization (ten strains of E. coli): +
CC(=O)N[C@@H](CS)C(=O)O [N-acetyl cysteine] | – | not suitable | –
N[C@H](COP(=O)(O)O)C(=O)O [O-phospho-D-serine] | positive | – | –
N[C@H](Cc1ccc(OP(=O)(O)O)cc1)C(=O)O [O-phospho-D-tyrosine] | positive | – | –
N[C@@H](COP(=O)(O)O)C(=O)O [O-phospho-L-serine] | positive | – | –
C[C@@H](OP(=O)(O)O)[C@H](N)C(=O)O [O-phospho-L-threonine] | positive | – | –

Compound | suitability as phosphorus source (growth, purple color) (E. coli MG1655 [1]) | suitability as sulfur source (growth, purple color) (E. coli MG1655 [1]) | further results
N[C@@H](Cc1ccc(OP(=O)(O)O)cc1)C(=O)O [O-phospho-L-tyrosine] | positive | – | –
CSC[C@H](N)C(=O)O [S-methyl-L-cysteine] | – | weak positive | –
Nc1ncnc2c1ncn2C1OC(CO)C2OP(=O)(O)OC21 (stereo not drawn) [adenosine 2′:3′-cyclic monophosphate] | not suitable | – | –
O=C[C@@H](O)[C@H](O)[C@H](O)COP(=O)(O)O [arabinose 5-phosphate] | positive | – | –
N[C@@H](CCSC[C@H](N)C(=O)O)C(=O)O [cystathionine] | – | positive | –
Nc1ccn([C@@H]2O[C@H](CO)C3OP(=O)(O)O[C@@H]32)c(=O)n1 (stereo partly drawn) [cytidine 2′:3′-cyclic monophosphate] | positive | – | –
Nc1ccn([C@@H]2O[C@@H]3COP(=O)(O)O[C@H]3[C@H]2O)c(=O)n1 [cytidine 3′:5′-cyclic monophosphate] | not suitable | – | –
OP(O)(=S)S [dithiophosphate] | positive | positive | –
O=C(COP(=O)(O)O)[C@@H](O)[C@H](O)[C@H](O)CO [fructose 1-phosphate] | positive | – | –
N[C@H]1C(OP(=O)(O)O)O[C@H](CO)[C@@H](O)[C@@H]1O (stereo partly drawn) [glucosamine 1-phosphate] | positive | – | –
N[C@H]1C(O)O[C@H](COP(=O)(O)O)[C@@H](O)[C@@H]1O (stereo partly drawn) [glucosamine 6-phosphate] | positive | – | –
Nc1nc2c(ncn2[C@@H]2O[C@H](CO)[C@H]3OP(=O)(O)O[C@H]32)c(=O)[nH]1 [guanosine 2′:3′-cyclic monophosphate] | positive | – | –
Nc1nc2c(ncn2[C@@H]2O[C@H](CO)[C@@H](OP(=O)(O)O)[C@H]2O)c(=O)[nH]1 [guanosine 3′-monophosphate] | positive | – | –
Nc1nc2c(ncn2[C@@H]2O[C@@H]3COP(=O)(O)O[C@H]3[C@H]2O)c(=O)[nH]1 [guanosine 3′:5′-cyclic monophosphate] | not suitable | – | –
NCCS(=O)O [hypotaurine] | – | positive | –
O=P(O)(O)O[C@H]1[C@H](OP(=O)(O)O)[C@@H](OP(=O)(O)O)[C@H](OP(=O)(O)O)[C@@H](OP(=O)(O)O)[C@H]1OP(=O)(O)O [inositol hexaphosphate] | not suitable | – | –
O=S(=O)(O)CCO [isethionate] | – | positive | –
N[C@@H](CSC[C@H](N)C(=O)O)C(=O)O [lanthionine] | – | positive | –
O=P(O)(O)OC1O[C@H](CO)[C@@H](O)[C@H](O)[C@@H]1O (stereo partly drawn) [mannose 1-phosphate] | positive | – | –
O=C[C@@H](O)[C@@H](O)[C@H](O)[C@H](O)COP(=O)(O)O [mannose 6-phosphate] | positive | – | –
O=P(O)(O)CP(=O)(O)O [methylene diphosphonic acid] | not suitable | – | –
O=[N+]([O-])c1ccc(OP(=O)(O)O)cc1 [nitrophenyl phosphate] | not suitable | – | –
CN(CC(=O)O)C(=N)NP(=O)(O)O [phosphocreatine] | positive | – | –

Compound | suitability as phosphorus source (growth, purple color) (E. coli MG1655 [1]) | suitability as sulfur source (growth, purple color) (E. coli MG1655 [1]) | further results
C=C(OP(=O)(O)O)C(=O)O [phosphoenol pyruvate] | positive | – | –
O=C(O)COP(=O)(O)O [phosphoglycolic acid] | positive | – | –
O=C(O)CP(=O)(O)O [phosphonoacetic acid] | not suitable | – | –
O=P(O)(O)OP(=O)(O)O [pyrophosphate] | not suitable | – | –
NCCS(=O)(=O)O [taurine] | – | positive | –
C[C@H](CCC(=O)NCCS(=O)(=O)O)[C@H]1CC[C@H]2[C@@H]3[C@H](O)C[C@@H]4C[C@H](O)CC[C@]4(C)[C@H]3C[C@H](O)[C@]12C [taurocholic acid] | – | positive | –
O=S1(=O)CCCC1 [tetramethylene sulfone] | – | not suitable | –
O=S(=O)(O)SSS(=O)(=O)O [tetrathionate] | – | positive | –
O=C(O)CS [thioglycolic acid] | – | not suitable | –
OP(O)(O)=S [thiophosphate] | positive | positive | –
O=S(O)(O)=S [thiosulfate] | – | positive | –
Cc1cn([C@H]2C[C@@H]3OP(=O)(O)OC[C@H]3O2)c(=O)[nH]c1=O [thymidine 3′:5′-cyclic monophosphate] | not suitable | – | –
Cc1cn([C@H]2C[C@H](O)[C@@H](COP(=O)(O)O)O2)c(=O)[nH]c1=O [thymidine 5′-monophosphate] | positive | – | –
Cc1cn([C@H]2C[C@H](OP(=O)(O)O)[C@@H](CO)O2)c(=O)[nH]c1=O [thyrnidine 3′-monophosphate] | positive | – | –
O=P(O)(O)OP(=O)(O)OP(=O)(O)O [tripolyphosphate] | not suitable | – | –
O=c1ccn([C@@H]2O[C@H](CO)[C@@H](O)[C@H]2OP(=O)(O)O)c(=O)[nH]1 [uridine 2′-monophosphate] | positive | – | –
O=c1ccn([C@@H]2O[C@H](CO)[C@H]3OP(=O)(O)O[C@H]32)c(=O)[nH]1 [uridine 2′:3′-cyclic monophosphate] | positive | – | –
O=c1ccn([C@@H]2O[C@@H]3COP(=O)(O)O[C@H]3[C@H]2O)c(=O)[nH]1 [uridine 3′:5′-cyclic monophosphate] | not suitable | – | –
O=P(O)(O)OC(CO)CO [β-glycerophosphate] | positive | – | –
O-acetyle-serine with sodium sulfate | – | positive | –
phosphatidyl glycerol | not suitable | – | –
